Reference: patent EP3623369A1, “NOVEL MORPHOLINYL AMINE COMPOUNDS FOR THE TREATMENT OF AUTOIMMUNE DISEASE” (F. Hoffmann-La Roche AG, priority 2018, dated 2020)
pIC50: −log10 of the molar value.

Target: T1, hTLR9 (Homo sapiens, UniProt Q9NR96)
T1 sequence (Q9NR96 26-1032): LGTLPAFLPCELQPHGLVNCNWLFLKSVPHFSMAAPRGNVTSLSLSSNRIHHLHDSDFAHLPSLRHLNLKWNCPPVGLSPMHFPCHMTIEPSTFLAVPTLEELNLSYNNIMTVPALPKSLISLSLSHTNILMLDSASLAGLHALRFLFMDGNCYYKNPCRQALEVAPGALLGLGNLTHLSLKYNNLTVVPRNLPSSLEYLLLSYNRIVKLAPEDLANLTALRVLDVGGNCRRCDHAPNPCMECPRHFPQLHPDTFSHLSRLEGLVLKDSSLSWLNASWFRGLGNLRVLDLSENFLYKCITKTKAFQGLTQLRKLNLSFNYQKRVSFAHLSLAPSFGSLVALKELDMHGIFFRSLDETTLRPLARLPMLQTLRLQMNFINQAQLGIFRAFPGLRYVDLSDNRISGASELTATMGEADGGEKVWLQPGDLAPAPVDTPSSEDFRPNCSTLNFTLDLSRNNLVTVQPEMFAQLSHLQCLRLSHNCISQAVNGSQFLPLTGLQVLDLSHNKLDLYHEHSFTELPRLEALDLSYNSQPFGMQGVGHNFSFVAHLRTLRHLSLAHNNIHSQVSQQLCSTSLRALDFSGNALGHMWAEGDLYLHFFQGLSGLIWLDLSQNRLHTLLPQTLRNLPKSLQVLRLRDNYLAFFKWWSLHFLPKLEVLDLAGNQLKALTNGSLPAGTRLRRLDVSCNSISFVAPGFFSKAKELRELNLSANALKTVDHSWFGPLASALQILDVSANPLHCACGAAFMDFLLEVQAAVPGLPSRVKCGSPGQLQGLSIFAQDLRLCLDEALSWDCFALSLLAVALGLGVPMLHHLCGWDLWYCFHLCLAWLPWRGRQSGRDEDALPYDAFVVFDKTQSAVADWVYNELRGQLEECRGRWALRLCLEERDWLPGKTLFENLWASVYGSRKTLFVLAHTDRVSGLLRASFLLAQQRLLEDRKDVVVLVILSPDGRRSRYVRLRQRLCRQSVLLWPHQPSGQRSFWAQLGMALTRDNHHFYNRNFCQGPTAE
Experiment: HEK293-Blue-hTLR-9 cells assay (SEAP reporter, ODN2006 stimulation)
Type: cell-based
Settings: HEK293-Blue-hTLR9 cells, ODN2006, 20 hrs; 0.032 is the lowest tested concentration; read-out: HEK/hTLR9 IC50
Procedure: The following tests were carried out in order to determine the activity of the compounds of formula (I) or (Ia) in HEK293-Blue-hTLR-7/8/9 cells assay.
HEK293-Blue-hTLR-9 cells assay:
A stable HEK293-Blue-hTLR-9 cell line was purchased from InvivoGen (Cat.#: hkb-htlr9, San Diego, California, USA). These cells were originally designed for studying the stimulation of human TLR9 by monitoring the activation of NF-κB. A SEAP (secreted embryonic alkaline phosphatase) reporter gene was placed under the control of the IFN-β minimal promoter fused to five NF-κB and AP-1-binding sites. The SEAP was induced by activating NF-κB and AP-1 via stimulating HEK-Blue hTLR9 cells with TLR9 ligands. Therefore the reporter expression was declined by TLR9 antagonist under the stimulation of a ligand, such as ODN2006 (Cat.#: tlrl-2006-1, Invivogen, San Diego, California, USA), for incubation of 20 hrs. The cell culture supernatant SEAP reporter activity was determined using QUANTI-Blue™ kit (Cat.#: rep-qb1, Invivogen, San Diego, California, USA) at a wavelength of 640 nm, a detection medium that turns purple or blue in the presence of alkaline phosphatase.
HEK293-Blue-hTLR9 cells were incubated at a density of 250,000∼450,000 cells/mL in a volume of 170 µL in a 96-well plate in Dulbecco's Modified Eagle's medium (DMEM) containing 4.5 g/L glucose, 50 U/mL penicillin, […], […], 2 mM L-glutamine, 10% (v/v) heat-inactivated fetal bovine serum with addition of 20 µL test compound in a serial dilution in the presence of final DMSO at 1% and 10 µL of 20uM ODN2006 in above DMEM, perform incubation under 37 °C in a CO2 incubator for 20 hrs. Then 20 µL of the supernatant from each well was incubated with 180 µL Quanti-blue substrate solution at 37 °C for 2 hrs and the absorbance was read at 620∼655 nm using a spectrophotometer. The signalling pathway that TLR9 activation leads to downstream NF-κB activation has been widely accepted, and therefore similar reporter assay was modified for evaluating TLR9 antagonist.

C[C@@H]1CN(c2ccc(C#N)c3ncccc23)C[C@H](CN2Cc3cc(N4CCNCC4)cnc3C2)O1 [Example 20, 5-[(2R,6S)-2-methyl-6-[(3-piperazin-1-yl-5,7-dihydropyrrolo[3,4-b]pyridin-6-yl)methyl]morpholin-4-yl]quinoline-8-carbonitrile]
pIC50: 7.32

C[C@@H]1CN(c2ccc(C#N)c3nccnc23)C[C@H](CN2Cc3ccc(N4CCN5CCCCC5C4)cc3C2)O1 (stereo partly drawn) [Example 40, 8-[(2S,6R)-2-[[5-(1,3,4,6,7,8,9,9a-octahydropyrido[1,2-a]pyrazin-2-yl)isoindolin-2-yl]methyl]-6-methyl-morpholin-4-yl]quinoxaline-5-carbonitrile]
pIC50: 6.91

C[C@@H]1CN(c2ccc(C#N)c3ncccc23)C[C@H](CN2Cc3ccc(N4CCNCC4C(F)F)cc3C2)O1 (stereo partly drawn) [Example 76, 5-[(2S,6R)-2-[[5-[2-(difluoromethyl)piperazin-1-yl]isoindolin-2-yl]methyl]-6-methyl-morpholin-4-yl]quinoline-8-carbonitrile]
pIC50: 6.72

C[C@@H]1CN(c2ccc(C#N)c3ncccc23)C[C@H](CNCc2ccc(N3CCNCC3)cc2)O1 [Example 86, 5-[(2R,6S)-2-methyl-6-[[(4-piperazin-1-ylphenyl)methylamino]methyl]morpholin-4-yl] quinoline-8-carbonitrile]
pIC50: > 7.49

5-[(2S,6R)-2-[[5-[3-(hydroxymethyl)piperazin-1-yl]isoindolin-2-yl]methyl]-6-methyl-morpholin-4-yl]quinoline-8-carbonitrile [Example 85]
pIC50: 7.29

C[C@@H]1CN(c2ccc(C#N)c3nccnc23)C[C@H](CN2Cc3ccc(N4CCNC5(CC5)C4)cc3C2)O1 [Example 38, 8-[(2S,6R)-2-[[5-(4,7-diazaspiro[2.5]octan-7-yl)isoindolin-2-yl]methyl]-6-methyl-morpholin-4-yl]quinoxaline-5-carbonitrile]
pIC50: 6.64

C[C@@H]1CN(c2ccc(Cl)c3ncccc23)C[C@H](CN2Cc3ccc(N4CCNCC4)cc3C2)O1 [Example 31, (2R,6S)-4-(8-chloro-5-quinolyl)-2-methyl-6-[(5-piperazin-1-ylisoindolin-2-yl)methyl]morpholine]
pIC50: 6.77

C[C@@H]1CN(c2ccc(C#N)c3ncccc23)C[C@H](CN2CCc3nc(N4CCNCC4)ccc3C2)O1 [Example 79, 5-[(2R,6S)-2-methyl-6-[(2-piperazin-1-yl-7,8-dihydro-5H-1,6-naphthyridin-6-yl)methyl]morpholin-4-yl]quinoline-8-carbonitrile]
pIC50: > 7.49

CC1CNCCN1c1ccc2c(c1)CN(C[C@H]1CN(c3ccc(C#N)c4ncccc34)C[C@@H](C)O1)C2 (stereo partly drawn) [Example 78, 5-[(2R,6S)-2-methyl-6-[[5-(2-methylpiperazin-1-yl)isoindolin-2-yl]methyl]morpholin-4-yl] quinoline-8-carbonitrile]
pIC50: 6.79

C[C@@H]1CN(c2ccc(C#N)c3ncccc23)C[C@H](CN2Cc3ccc(CN4CCCCC4)cc3C2)O1 [Example 74, 5-[(2R,6S)-2-methyl-6-[[5-(1-piperidylmethyl)isoindolin-2-yl]methyl]morpholin-4-yl]quinoline-8-carbonitrile]
pIC50: 7.14

C[C@@H]1CN(c2ccc(C#N)c3ncccc23)C[C@H](CN2Cc3cc(N4CCN(C)CC4)cc(F)c3C2)O1 [Example 69, 5-[(2S,6R)-2-[[4-fluoro-6-(4-methylpiperazin-1-yl)isoindolin-2-yl]methyl]-6-methyl-morpholin-4-yl]quinoline-8-carbonitrile]
pIC50: 7.09

C[C@@H]1CN(c2ccc(C#N)c3ncccc23)C[C@H](CN2Cc3ccc(N4CC5(CCN5)C4)cc3C2)O1 [Example 55, 5-[(2S,6R)-2-[[5-(1,6-diazaspiro[3.3]heptan-6-yl)isoindolin-2-yl]methyl]-6-methyl-morpholin-4-yl]quinoline-8-carbonitrile]
pIC50: 7.08

C[C@@H]1CN(c2ccc3c(c2)CN(C[C@H]2CN(c4ccc(C#N)c5ncccc45)C[C@@H](C)O2)C3)C[C@@H](C)N1 (mixture of isomers) [Example 57, Trans-5-[(2R,6S)-2-methyl-6-[[5-[3,5-dimethylpiperazin-1-yl]isoindolin-2-yl]methyl]morpholin-4-yl]quinoline-8-carbonitrile]
pIC50: 7.01

C[C@@H]1CN(c2ccc(C#N)n3nccc23)C[C@H](CN2Cc3cc(N4CCNCC4)cnc3C2)O1 [Example 18, 4-[(2R,6S)-2-methyl-6-[(3-piperazin-1-yl-5,7-dihydropyrrolo[3,4-b]pyridin-6-yl)methyl]morpholin-4-yl]pyrazolo[1,5-a]pyridine-7-carbonitrile]
pIC50: 7.32

C[C@@H]1CN(c2ccc(C#N)n3nccc23)C[C@H](CN2Cc3ccc(C4CCNCC4)cc3C2)O1 [Example 8, 4-[(2R,6S)-2-methyl-6-[[5-(4-piperidyl)isoindolin-2-yl]methyl]morpholin-4-yl]pyrazolo[1,5-a]pyridine-7-carbonitrile]
pIC50: 7.21

3-fluoro-4-[(2R,6S)-2-methyl-6-[(5-piperazin-1-ylisoindolin-2-yl)methyl]morpholin-4-yl]pyrazolo[1,5-a]pyridine-7-carbonitrile [Example 7]
pIC50: 7.04

C[C@@H]1CN(c2ccc(C#N)c3ncccc23)C[C@H](CN2Cc3ccc(N4CCNCC4)nc3C2)O1 [Example 80, 5-[(2R,6S)-2-methyl-6-[(2-piperazin-1-yl-5,7-dihydropyrrolo[3,4-b]pyridin-6-yl)methyl]morpholin-4-yl]quinoline-8-carbonitrile]
pIC50: 7.25

C[C@@H]1CN(c2ccc(C#N)c3ncccc23)C[C@H](CN2CCc3cc(N4CCNCC4)ncc3C2)O1 [Example 70, 5-[(2R,6S)-2-methyl-6-[(6-piperazin-1-yl-3,4-dihydro-1H-2,7-naphthyridin-2-yl)methyl]morpholin-4-yl]quinoline-8-carbonitrile]
pIC50: > 7.49

C[C@@H]1CN(c2ccc(C#N)c3ncccc23)C[C@H](CN2CCc3cc(N4CCNCC4)ccc3C2)O1 [Example 19, 5-[(2R,6S)-2-methyl-6-[(6-piperazin-1-yl-3,4-dihydro-1H-isoquinolin-2-yl)methyl]morpholin-4-yl]quinoline-8-carbonitrile]
pIC50: 7.19

C[C@@H]1CN(c2ccc(C#N)c3ncccc23)C[C@H](CN2Cc3ccc(N4C5CNCC4COC5)cc3C2)O1 [Example 46, 5-[(2R,6S)-2-methyl-6-[[5-(3-oxa-7,9-diazabicyclo[3.3.1]nonan-9-yl)isoindolin-2-yl]methyl]morpholin-4-yl]quinoline-8-carbonitrile]
pIC50: 7.12

C[C@@H]1CN(c2ccc3c(c2)CN(C[C@H]2CN(c4ccc(C#N)c5ncccc45)C[C@@H](C)O2)C3)CCN1 [Example 62, 5-[(2R,6S)-2-methyl-6-[[5-[(3R)-3-methylpiperazin-1-yl]isoindolin-2-yl]methyl]morpholin-4-yl] quinoline-8-carbonitrile]
pIC50: 7.21

C[C@@H]1CN(c2ccc(C#N)n3nccc23)C[C@H](CN2Cc3ccc(C4CCNC4)cc3C2)O1 (stereo partly drawn) [Example 9, 4-[(2R,6S)-2-methyl-6-[(5-pyrrolidin-3-ylisoindolin-2-yl)methyl]morpholin-4-yl]pyrazolo[1,5-a]pyridine-7-carbonitrile]
pIC50: 7.19
